For test [1], the target named is T1, DNAJA1 (Homo sapiens, UniProt P31689).
T1 construct: DNAJA1-107 (residues 1 to 107, J-domain and linker, N-terminal 6x-His tag)
Briefly: 1D […] NMR line broadening and 2D 1H-15N HSQC chemical shift perturbation. It counts as binding.

For test [2], the target named is T1, DNAJA1. Briefly: ITC; STD NMR and 2D 1H-15N HSQC chemical shift perturbation. It counts as binding.
The target of test [3] is T2, DNAJA1-107 (residues 1 to 107 of human DnaJ homolog subfamily A member 1) (human, UniProt P31689 1-107).
T2 construct: The methods name an N-terminal 6x-histidine tag; 15N-labelled for the NMR experiment with ANT3; source: for the pull-down immobilised on cobalt resin; not shown: His6, N-terminal, kept
Description: NMR titration; 15N-DNAJA1-107 mixed with ANT3 (232-272) at DNAJA1-107:ANT3 molar ratios 10:1, 5:1 and 1:1 (50 uM each at equal molarity); 10 mM Tris-HCl, 1 mM EDTA, 6% trehalose, pH 8.0; 2D 1H-15N HSQC; immediate, concentration-dependent precipitation on mixing taken as the sign of interaction. The settings on record: both partners purified.

The text below walks through data of publication PMC9599757, “Leveraging the Structure of DNAJA1 to Discover Novel Potential Pancreatic Cancer Therapies” (Biomolecules, 2022).

`Nc1ncnc2c1ncn2[C@@H]1O[C@H](COP(=O)(O)OP(=O)(O)O)[C@@H](O)[C@H]1O` [ADP]: the “1D 31P NMR line broadening and 2D 1H-15N HSQC chemical shift perturbation” value on DNAJA1 [1] is “ADP, O-phospho-L-serine, O-phospho-L-tyrosine, and dihydroxyacetone phosphate exhibited specific binding to DNAJA1-107”.

Turning to `O=C(c1ccc(Br)s1)N1CCN(c2ccc(F)cc2)CC1` [compound 9101204, 1-[(5-bromo-2-thienyl)carbonyl]-4-(4-fluorophenyl)piperazine], the Kd on DNAJA1 [2] worked out at 0.1 ± 0.3 µM.

Regarding `CCOc1ccc(-c2cc(OC(=O)c3cccs3)c3c(C)oc(C)c3c(=O)c2)cc1` [compound 7727968, 6-(4-ethoxyphenyl)-1,3-dimethyl-4-oxo-4H-cyclohepta[c]furan-8-yl 2-thiophenecarboxylate], the dissociation constant Kd on DNAJA1 [2] was 10 µM.

B1: Recombinant Human ADP/ATP translocase 3 (ANT3), amino acids 232-272 (domain or fragment, UniProt P12236 232-272, looked up)
chain: DTVRRRMMMQSGRKGADIMYTGTVDCWRKIFRDEGGKAFFK
notes: ADP/ATP translocase 3 (ANT3), human, amino acids 232-272; The construct included an N-terminal 6xHis-KSI tag to aid purification and solubility; also called ANT3 construct; source: bought: CUSABIO, catalog number CSB-EP021520HU1
Turning to B1, the binding result in test [3] was “binds”.
